Data as given in publication PMC10141580, “Cyclic Dichalcogenides Extend the Reach of Bioreductive Prodrugs to Harness Thiol/Disulfide Oxidoreductases: Applications to seco-Duocarmycins Targeting the Thioredoxin System” (ACS Central Science, 2023).
Like-named read-outs stand apart in the source and are kept apart here.

Tests used:
HeLa-HRE cells = experiment: Resazurin cytotoxicity assay, HeLa-HRE, 48 h; settings: for IC50(HeLa)/IC50(A549): ratio HeLa vs A549
Description: We used A549 lung cancer and HeLa cervical cancer cell lines for initial screening of the prodrugs.
HeLa-HRE cells were treated with prodrugs of the
Dose -response curves were calculated from at least 27 incremental single concentrations over a
range of at least three log units.

[1] = system: athymic nu/nu NMRI mice with BxPC-3 tumors; experiment: BxPC-3-bearing tolerability study; format: in vivo, mouse; settings: twice weekly 3 mg/kg, five injections, BxPC-3-bearing NMRI mice
Description: A larger study was run in 50 athymic nu/nu NMRI mice (10 animals per group) inoculated with BxPC-3 pancreatic cancer cells since the study had been intended as a therapeutic efficacy trial (see section 2.9). Similarly solubilized SS66C derivatives were now included. In this study, the tumor growth rates in all animals were much lower than in any previous or subsequent trials (Figure S16c), so we could only extract data about drug tolerability, not antitumor efficacy. Still, the study confirmed that the solubilized P-SS60-, Me-SS66C-, and P-SS66C- prodrugs of -CBI-TMI, and the corresponding carbamate hydrolysis control P-CC60-CBI-TMI, were tolerated with twice weekly injections at 3 mg/kg, over a course of five injections, in all animals, since no distinct differences of body weight or animal health were seen as compared to the vehicle control (Figure S16a).
a Body weights b Body weights
$ Absolute Tumour Volumes d Absolute Tumour Volumes
Irinotecan Irinotecan Irinotecan Irinotecan
(a,b) Bodyweights (means);
confidence interval). […] Dotted vertical lines indicate days

[2] = read-out: IC50(nM): HeLa, HeLa, 48 h

Structure (SMILES)	IC50 (HeLa-HRE cells; [2]) [nM]	tolerability [1]	IC50(HeLa)/IC50(A549) (HeLa-HRE cells)	IC50 (HeLa-HRE cells; initial screening, A549 and HeLa cell lines) [nM]	IC50 (HeLa-HRE cells; Homo sapiens, HeLa, 48 h, read-out: IC50(nM): HeLa) [nM]
COc1cc2cc(C(=O)N3CC(CCl)c4c3cc(OC(=O)N3CCN(C)C5CSSCC53)c3ccccc43)[nH]c2c(OC)c1OC (mixture of isomers) [Me-SS66C-CBI-TMI]	220	tolerated	–	–	–
COc1cc2cc(C(=O)N3CC(CCl)c4c3cc(OC(=O)N3CCN(C)C5CSSCC53)c3ccccc43)[nH]c2c(OC)c1OC (mixture of isomers) [Me-SS66T-CBI-TMI]	59	–	10	–	–
COc1cc2cc(C(=O)N3C[C@@H](CCl)c4c3cc(OC(=O)N(CCC(=O)N3CCN(C)CC3)C3CCCCC3)c3ccccc43)[nH]c2c(OC)c1OC [P-CC60-CBI-TMI]	1250	tolerated	0.7	> 1000	–
COc1cc2cc(C(=O)N3C[C@@H](CCl)c4c3cc(OC(=O)N(CCC(=O)N3CCN(C)CC3)[C@H]3CCSSC3)c3ccccc43)[nH]c2c(OC)c1OC [P-SS60-CBI-TMI]	420	tolerated	2.3	–	–
COc1cc2cc(C(=O)N3C[C@@H](CCl)c4c3cc(OC(=O)N3CCN(C(=O)CCC(=O)N5CCN(C)CC5)[C@H]5CSSC[C@H]53)c3ccccc43)[nH]c2c(OC)c1OC [P-SS66C-CBI-TMI]	–	tolerated	17	–	200
